In the supplement of paper PMC10307832:

How the values were obtained:
Assay in all cases: relative viability (nuclei count vs DMSO), 5 days (fraction); higher = more cells survive
Midostaurin + Phenformin = compound: CO[C@@H]1[C@H](N(C)C(=O)c2ccccc2)C[C@H]2O[C@]1(C)n1c3ccccc3c3c4c(c5c6ccccc6n2c5c31)C(=O)NC4 [Midostaurin] + N=C(N)NC(=N)NCCc1ccccc1 [Phenformin] (partner 250 µM)
In short: (§1)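 Lung cancer cell lines in 1536-well plates were dosed by pin tool the day after seeding, either with one drug alone or with a fixed anchor-drug dose plus five library-drug doses (not always all listed) in √10 steps. After 5 days, cells were fixed and their nuclei stained in one step (final 0.05% Triton X-100, 1% formaldehyde, 1 ug/ml Hoechst), then counted on 4× images. Relative viability is the nuclei count in treated wells divided by that in vehicle wells. Values are medians of duplicate plates.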

[1] = compound: COc1cc(-c2nn([C@H]3CC[C@H](N4CCN(C(C)=O)CC4)CC3)c3ncnc(N)c23)ccc1NC(=O)c1cc2ccccc2n1C + C[C@]1(O)C[C@@H](c2nc(-c3ccc4ccc(-c5ccccc5)nc4c3)c3c(N)nccn32)C1 [Linsitinib] (partner 1 µM)
In short: as §1

Midostaurin + Luminespib = compound: CO[C@@H]1[C@H](N(C)C(=O)c2ccccc2)C[C@H]2O[C@]1(C)n1c3ccccc3c3c4c(c5c6ccccc6n2c5c31)C(=O)NC4 [Midostaurin] + CCNC(=O)c1noc(-c2cc(C(C)C)c(O)cc2O)c1-c1ccc(CN2CCOCC2)cc1 [Luminespib] (partner 0.01 µM)
In short: as §1

Midostaurin + Pictilisib = compound: CO[C@@H]1[C@H](N(C)C(=O)c2ccccc2)C[C@H]2O[C@]1(C)n1c3ccccc3c3c4c(c5c6ccccc6n2c5c31)C(=O)NC4 [Midostaurin] + CS(=O)(=O)N1CCN(Cc2cc3nc(-c4cccc5[nH]ncc45)nc(N4CCOCC4)c3s2)CC1 [Pictilisib] (partner 1 µM)
In short: as §1

Midostaurin + Decitabine = compound: CO[C@@H]1[C@H](N(C)C(=O)c2ccccc2)C[C@H]2O[C@]1(C)n1c3ccccc3c3c4c(c5c6ccccc6n2c5c31)C(=O)NC4 [Midostaurin] + Nc1ncn([C@H]2C[C@H](O)[C@@H](CO)O2)c(=O)n1 [Decitabine] (partner 2 µM)
In short: as §1

| Cell Line | relative viability (Midostaurin + Phenformin; first compound 0.01 µM) | relative viability (Midostaurin + Phenformin; first compound 0.03162 µM) | relative viability (Midostaurin + Phenformin; first compound 0.1 µM) | relative viability (Midostaurin + Phenformin; first compound 0.3162 µM) | relative viability ([1]; first compound 0.0128 µM) | relative viability ([1]; first compound 0.04048 µM) | relative viability ([1]; first compound 0.128 µM) | relative viability ([1]; first compound 1.28 µM) | relative viability (Midostaurin + Luminespib; first compound 0.01 µM) | relative viability (Midostaurin + Luminespib; first compound 0.03162 µM) | relative viability (Midostaurin + Luminespib; first compound 0.1 µM) | relative viability (Midostaurin + Luminespib; first compound 0.3162 µM) | relative viability (Midostaurin + Pictilisib; first compound 0.01 µM) | relative viability (Midostaurin + Pictilisib; first compound 0.03162 µM) | relative viability (Midostaurin + Pictilisib; first compound 0.1 µM) | relative viability (Midostaurin + Pictilisib; first compound 0.3162 µM) | relative viability (Midostaurin + Decitabine; first compound 0.01 µM) | relative viability (Midostaurin + Decitabine; first compound 0.03162 µM) | relative viability (Midostaurin + Decitabine; first compound 0.1 µM) | relative viability (Midostaurin + Decitabine; first compound 0.3162 µM) |
| --- | --- | --- | --- | --- | --- | --- | --- | --- | --- | --- | --- | --- | --- | --- | --- | --- | --- | --- | --- | --- |
| EMC-BAC-2 | 0.508 | 0.508 | 0.458 | 0.283 | 0.869 | 0.806 | 0.815 | 0.521 | 1.11 | 1.05 | 0.898 | 1.16 | 0.559 | 0.454 | 0.494 | 0.475 | 0.922 | 0.933 | 0.897 | 0.818 |
| LK-2 | 0.425 | 0.571 | 0.492 | 0.374 | 0.554 | 0.522 | 0.461 | 0.231 | 0.191 | 0.221 | 0.187 | 0.199 | 0.592 | 0.555 | 0.586 | 0.599 | 0.262 | 0.272 | 0.405 | 0.299 |
| NCI-H2126 | 0.519 | 0.467 | 0.565 | 0.564 | 0.825 | 0.765 | 0.701 | 0.537 | 0.889 | 0.679 | 0.847 | 0.896 | 0.541 | 0.441 | 0.499 | 0.523 | 0.549 | 0.644 | 0.612 | 0.613 |
| HCC-78 | 0.797 | 0.603 | 0.693 | 0.462 | 0.573 | 0.643 | 0.513 | 0.436 | – | – | – | – | 0.216 | 0.216 | 0.229 | 0.19 | 0.651 | 0.676 | 0.613 | 0.72 |
| NCI-H1299 | – | – | – | – | 1.01 | 0.871 | 0.999 | 0.655 | – | – | – | – | 0.838 | 0.73 | 0.527 | 0.273 | – | – | – | – |
| NCI-H1650 | 0.408 | 0.498 | 0.413 | 0.302 | – | – | – | – | 0.19 | 0.175 | 0.187 | 0.173 | 0.616 | 0.592 | 0.657 | 0.569 | 0.352 | 0.418 | 0.426 | 0.517 |
| ChaGo-K-1 | 0.439 | 0.533 | 0.522 | 0.529 | – | – | – | – | 0.619 | 0.627 | 0.525 | 0.626 | 0.688 | 1.24 | 0.712 | 1.1 | 0.488 | 0.55 | 0.533 | 0.54 |
| NCI-H2228 | 0.405 | 0.363 | 0.366 | 0.5 | 0.54 | 0.883 | 0.649 | 0.643 | 0.155 | 0.163 | 0.164 | 0.134 | 0.422 | 0.454 | 0.452 | 0.617 | – | – | – | – |
| SW 900 | 0.608 | 0.451 | 0.653 | 0.395 | – | – | – | – | 0.192 | 0.198 | 0.189 | 0.151 | – | – | – | – | 0.407 | 0.491 | 0.439 | 0.433 |
| NCI-H1563 | 0.693 | 0.672 | 0.697 | 0.682 | 1.24 | 1.12 | 1.31 | 0.903 | 0.505 | 0.515 | 0.501 | 0.492 | 0.605 | 0.722 | 0.599 | 0.692 | – | – | – | – |
| A549 | 0.139 | 0.126 | 0.166 | 0.209 | 0.552 | 0.666 | 0.619 | 0.465 | – | – | – | – | 0.549 | 0.446 | 0.483 | 0.224 | 0.255 | 0.221 | 0.216 | 0.222 |
| NCI-H2342 | 0.657 | 0.561 | 0.587 | 0.643 | – | – | – | – | 0.704 | 0.708 | 0.738 | 0.754 | – | – | – | – | 0.73 | 0.787 | 0.716 | 0.827 |
| NCI-H2170 | 0.357 | 0.384 | 0.404 | 0.347 | – | – | – | – | 0.628 | 0.509 | 0.633 | 0.767 | 0.31 | 0.28 | 0.301 | 0.317 | 0.5 | 0.495 | 0.441 | 0.456 |
| NCI-H1623 | 0.588 | 0.626 | 0.56 | 0.634 | – | – | – | – | 0.526 | 0.647 | 0.513 | 0.632 | – | – | – | – | – | – | – | – |
| NCI-H522 | 0.596 | 0.706 | 0.655 | 0.753 | – | – | – | – | 1.07 | 1.51 | 1.26 | 1.21 | – | – | – | – | 0.584 | 0.638 | 0.822 | 0.525 |
| IA-LM | – | – | – | – | 0.606 | 0.299 | 0.698 | 0.815 | – | – | – | – | 0.405 | – | 0.497 | 0.449 | – | – | – | – |
| CAL-12T | 0.666 | 0.527 | 0.438 | 0.275 | 0.851 | 0.533 | 0.801 | 0.74 | 0.174 | 0.172 | 0.212 | 0.174 | 0.457 | 0.417 | 0.334 | 0.413 | – | – | – | – |
| EBC-1 | – | – | – | – | 0.77 | 0.959 | 0.898 | 0.896 | – | – | – | – | 0.504 | 0.272 | 0.294 | 0.196 | – | – | – | – |
